In paper PMC3961306, “Comparison of the Cancer Gene Targeting and Biochemical Selectivities of All Targeted Kinase Inhibitors Approved for Clinical Use” (PLoS ONE, 2014):
Where two headings read alike, the source gives them in different places.

Experiments:
[1] = tested on: forty-four human cancer cell lines; experiment: Cell proliferation assay (ATPlite, 72 hours) in the 44 cell line Oncolines panel; type: cell-based; conditions: Homo sapiens
[2] = biological target: panel of more than 300 wild-type and mutant kinases (313 kinase panel) (Homo sapiens, UniProt P00519, E255K); experiment: Kinase profiling in a biochemical assay panel (mobility shift assays and ELISA), %-inhibition at 1 μM; selectivity entropy; conditions: kinase ABL(E255K); 1 μM compound
[3] = biological target: panel of more than 300 wild-type and mutant kinases (313 kinase panel) (Homo sapiens, UniProt P04049); experiment: as above; conditions: kinase RAF1; 1 μM
[4] = biological target: panel of more than 300 wild-type and mutant kinases (313 kinase panel) (Homo sapiens, UniProt P10721, T670I); experiment: as above; conditions: kinase KIT(T670I); compound at 1 μM
[5] = biological target: panel of more than 300 wild-type and mutant kinases (313 kinase panel) (Homo sapiens, UniProt P22612); experiment: as above; conditions: kinase PKACγ; 1 μM
[6] = biological target: panel of more than 300 wild-type and mutant kinases (313 kinase panel) (Homo sapiens, UniProt Q04912); experiment: as above; conditions: kinase RON; 1 μM
[7] = biological target: panel of more than 300 wild-type and mutant kinases (313 kinase panel) (Homo sapiens, UniProt Q8N4C8); experiment: as above; conditions: kinase MINK; 1 μM
[8] = biological target: panel of more than 300 wild-type and mutant kinases (313 kinase panel) (Homo sapiens, UniProt Q9HC98); experiment: as above; conditions: kinase NEK6; 1 μM
[9] = biological target: T1, panel of more than 300 wild-type and mutant kinases (313 kinase panel) (Homo sapiens, UniProt Q9UL54); experiment: as above; conditions: kinase TAOK2; 1 μM
T1 sequence (Q9UL54 1-1235): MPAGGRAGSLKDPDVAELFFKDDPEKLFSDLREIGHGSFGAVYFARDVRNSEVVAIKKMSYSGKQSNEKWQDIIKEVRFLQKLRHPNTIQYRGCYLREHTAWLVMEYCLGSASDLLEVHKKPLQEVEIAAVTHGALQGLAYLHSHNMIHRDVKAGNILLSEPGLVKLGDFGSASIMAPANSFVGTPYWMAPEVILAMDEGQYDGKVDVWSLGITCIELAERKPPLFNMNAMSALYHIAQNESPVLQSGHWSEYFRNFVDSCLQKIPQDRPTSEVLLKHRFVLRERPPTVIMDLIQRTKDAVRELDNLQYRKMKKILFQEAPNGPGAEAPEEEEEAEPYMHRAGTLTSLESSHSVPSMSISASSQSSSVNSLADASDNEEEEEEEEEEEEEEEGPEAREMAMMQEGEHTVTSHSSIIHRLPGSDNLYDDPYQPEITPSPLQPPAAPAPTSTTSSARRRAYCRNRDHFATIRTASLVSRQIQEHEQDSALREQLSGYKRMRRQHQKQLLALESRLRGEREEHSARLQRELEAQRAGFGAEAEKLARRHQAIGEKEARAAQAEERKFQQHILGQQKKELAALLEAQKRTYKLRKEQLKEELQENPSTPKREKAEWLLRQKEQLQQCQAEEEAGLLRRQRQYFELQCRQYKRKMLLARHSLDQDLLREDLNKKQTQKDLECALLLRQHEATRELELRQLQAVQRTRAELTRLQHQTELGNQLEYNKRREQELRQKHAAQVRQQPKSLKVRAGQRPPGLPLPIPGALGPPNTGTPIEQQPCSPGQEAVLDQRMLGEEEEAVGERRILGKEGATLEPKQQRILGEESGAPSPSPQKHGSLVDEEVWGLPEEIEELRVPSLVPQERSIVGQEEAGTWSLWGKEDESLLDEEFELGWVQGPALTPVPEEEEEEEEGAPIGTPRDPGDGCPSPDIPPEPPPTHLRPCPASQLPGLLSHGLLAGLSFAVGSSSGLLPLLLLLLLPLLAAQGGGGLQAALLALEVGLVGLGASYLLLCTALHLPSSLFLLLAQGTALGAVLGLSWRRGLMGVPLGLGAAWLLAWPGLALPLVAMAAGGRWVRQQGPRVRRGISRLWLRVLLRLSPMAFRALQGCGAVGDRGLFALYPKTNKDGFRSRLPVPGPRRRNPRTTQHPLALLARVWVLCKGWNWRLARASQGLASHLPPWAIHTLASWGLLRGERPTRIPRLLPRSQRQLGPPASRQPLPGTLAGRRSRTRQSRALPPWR

Chain of panel of more than 300 wild-type and mutant kinases (313 kinase panel) (Homo sapiens, UniProt P10721, T670I) (P10721 26-976 T670I): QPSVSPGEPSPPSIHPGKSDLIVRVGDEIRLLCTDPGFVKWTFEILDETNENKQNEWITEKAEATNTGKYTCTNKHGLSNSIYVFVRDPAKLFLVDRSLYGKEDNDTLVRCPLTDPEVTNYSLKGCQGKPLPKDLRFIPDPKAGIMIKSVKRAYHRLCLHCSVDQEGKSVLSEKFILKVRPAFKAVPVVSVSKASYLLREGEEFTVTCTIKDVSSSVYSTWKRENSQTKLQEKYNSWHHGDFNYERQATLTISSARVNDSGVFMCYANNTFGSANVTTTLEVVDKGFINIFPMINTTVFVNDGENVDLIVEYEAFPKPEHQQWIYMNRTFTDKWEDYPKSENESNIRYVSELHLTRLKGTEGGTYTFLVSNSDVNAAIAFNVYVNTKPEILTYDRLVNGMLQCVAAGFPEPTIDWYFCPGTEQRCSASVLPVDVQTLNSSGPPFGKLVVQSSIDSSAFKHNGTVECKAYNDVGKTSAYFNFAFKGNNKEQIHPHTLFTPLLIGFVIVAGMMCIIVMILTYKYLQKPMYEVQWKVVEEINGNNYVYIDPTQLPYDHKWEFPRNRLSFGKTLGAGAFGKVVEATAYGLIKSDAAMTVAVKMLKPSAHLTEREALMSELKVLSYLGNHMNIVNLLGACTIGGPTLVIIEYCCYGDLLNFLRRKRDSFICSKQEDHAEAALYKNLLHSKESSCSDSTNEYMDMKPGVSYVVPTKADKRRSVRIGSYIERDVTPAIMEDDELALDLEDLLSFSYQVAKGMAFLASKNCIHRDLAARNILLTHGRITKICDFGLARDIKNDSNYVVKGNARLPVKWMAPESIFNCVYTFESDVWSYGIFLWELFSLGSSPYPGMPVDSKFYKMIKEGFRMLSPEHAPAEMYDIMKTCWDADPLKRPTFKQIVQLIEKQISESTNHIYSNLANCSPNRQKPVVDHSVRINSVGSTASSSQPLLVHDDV
Chain of panel of more than 300 wild-type and mutant kinases (313 kinase panel) (Homo sapiens, UniProt P00519, E255K) (P00519 whole entry E255K): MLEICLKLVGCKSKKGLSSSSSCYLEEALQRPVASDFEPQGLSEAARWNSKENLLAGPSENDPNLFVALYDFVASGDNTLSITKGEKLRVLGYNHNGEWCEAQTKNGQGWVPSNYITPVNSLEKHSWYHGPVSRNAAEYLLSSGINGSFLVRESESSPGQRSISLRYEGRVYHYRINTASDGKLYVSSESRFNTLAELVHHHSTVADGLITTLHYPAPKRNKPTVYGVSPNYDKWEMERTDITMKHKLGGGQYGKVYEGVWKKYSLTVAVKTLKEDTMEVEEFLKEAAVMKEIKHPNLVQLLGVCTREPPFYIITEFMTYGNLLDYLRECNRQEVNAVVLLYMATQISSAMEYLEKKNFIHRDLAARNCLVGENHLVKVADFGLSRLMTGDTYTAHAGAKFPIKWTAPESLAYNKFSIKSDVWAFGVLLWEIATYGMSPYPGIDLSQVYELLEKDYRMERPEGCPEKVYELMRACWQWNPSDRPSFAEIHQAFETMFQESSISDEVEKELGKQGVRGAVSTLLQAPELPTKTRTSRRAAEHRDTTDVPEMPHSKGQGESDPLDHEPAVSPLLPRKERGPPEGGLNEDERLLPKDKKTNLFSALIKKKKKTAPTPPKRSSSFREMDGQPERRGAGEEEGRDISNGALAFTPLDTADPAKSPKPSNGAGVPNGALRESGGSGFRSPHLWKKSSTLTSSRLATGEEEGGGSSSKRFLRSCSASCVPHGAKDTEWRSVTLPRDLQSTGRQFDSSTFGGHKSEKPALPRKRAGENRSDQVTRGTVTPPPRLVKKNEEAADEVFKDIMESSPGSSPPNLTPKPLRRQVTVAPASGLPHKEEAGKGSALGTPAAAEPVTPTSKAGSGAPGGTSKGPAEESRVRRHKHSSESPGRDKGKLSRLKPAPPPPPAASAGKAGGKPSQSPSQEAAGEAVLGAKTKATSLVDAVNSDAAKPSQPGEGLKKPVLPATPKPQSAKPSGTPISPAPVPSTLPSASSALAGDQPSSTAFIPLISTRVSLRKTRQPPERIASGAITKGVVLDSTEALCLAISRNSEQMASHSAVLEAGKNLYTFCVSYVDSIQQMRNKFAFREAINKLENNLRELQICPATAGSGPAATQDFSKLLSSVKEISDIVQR
Chain of panel of more than 300 wild-type and mutant kinases (313 kinase panel) (Homo sapiens, UniProt Q8N4C8) (Q8N4C8 whole entry, change not shown): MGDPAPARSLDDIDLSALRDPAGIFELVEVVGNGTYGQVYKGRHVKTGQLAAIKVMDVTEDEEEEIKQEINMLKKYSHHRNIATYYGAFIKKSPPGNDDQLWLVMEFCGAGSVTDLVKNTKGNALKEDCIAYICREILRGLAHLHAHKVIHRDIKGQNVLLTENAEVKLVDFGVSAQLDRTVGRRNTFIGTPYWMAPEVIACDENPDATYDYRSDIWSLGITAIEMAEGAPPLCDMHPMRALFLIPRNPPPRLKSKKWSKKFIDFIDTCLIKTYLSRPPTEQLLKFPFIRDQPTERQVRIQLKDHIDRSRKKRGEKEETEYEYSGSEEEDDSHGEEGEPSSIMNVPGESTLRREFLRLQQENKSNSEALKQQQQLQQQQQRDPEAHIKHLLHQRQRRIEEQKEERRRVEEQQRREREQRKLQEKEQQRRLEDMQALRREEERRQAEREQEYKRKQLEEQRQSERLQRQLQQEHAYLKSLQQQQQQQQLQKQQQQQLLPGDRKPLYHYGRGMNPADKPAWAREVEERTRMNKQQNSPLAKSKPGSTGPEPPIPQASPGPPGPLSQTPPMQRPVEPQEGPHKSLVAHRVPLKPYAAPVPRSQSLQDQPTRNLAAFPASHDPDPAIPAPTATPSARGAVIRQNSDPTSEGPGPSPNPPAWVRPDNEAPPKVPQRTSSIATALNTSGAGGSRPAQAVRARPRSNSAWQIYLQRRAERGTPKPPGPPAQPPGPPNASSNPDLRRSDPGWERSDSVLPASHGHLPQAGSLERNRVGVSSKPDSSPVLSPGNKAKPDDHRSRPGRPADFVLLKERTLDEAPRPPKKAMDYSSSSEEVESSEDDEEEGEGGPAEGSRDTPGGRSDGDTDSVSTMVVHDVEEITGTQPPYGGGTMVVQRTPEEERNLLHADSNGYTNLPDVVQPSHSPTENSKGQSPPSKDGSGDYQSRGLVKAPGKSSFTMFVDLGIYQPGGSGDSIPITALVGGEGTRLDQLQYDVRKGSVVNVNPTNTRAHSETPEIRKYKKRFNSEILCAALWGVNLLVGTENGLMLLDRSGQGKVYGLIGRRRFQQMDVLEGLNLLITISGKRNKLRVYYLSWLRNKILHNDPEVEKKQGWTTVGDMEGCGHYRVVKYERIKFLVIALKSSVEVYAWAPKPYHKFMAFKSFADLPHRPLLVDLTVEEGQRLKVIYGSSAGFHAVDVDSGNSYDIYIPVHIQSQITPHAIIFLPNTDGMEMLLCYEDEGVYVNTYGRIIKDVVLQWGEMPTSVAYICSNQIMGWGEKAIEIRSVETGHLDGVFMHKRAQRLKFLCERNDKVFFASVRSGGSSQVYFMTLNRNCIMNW
Chain of panel of more than 300 wild-type and mutant kinases (313 kinase panel) (Homo sapiens, UniProt P04049) (P04049 whole entry, stated change not applied): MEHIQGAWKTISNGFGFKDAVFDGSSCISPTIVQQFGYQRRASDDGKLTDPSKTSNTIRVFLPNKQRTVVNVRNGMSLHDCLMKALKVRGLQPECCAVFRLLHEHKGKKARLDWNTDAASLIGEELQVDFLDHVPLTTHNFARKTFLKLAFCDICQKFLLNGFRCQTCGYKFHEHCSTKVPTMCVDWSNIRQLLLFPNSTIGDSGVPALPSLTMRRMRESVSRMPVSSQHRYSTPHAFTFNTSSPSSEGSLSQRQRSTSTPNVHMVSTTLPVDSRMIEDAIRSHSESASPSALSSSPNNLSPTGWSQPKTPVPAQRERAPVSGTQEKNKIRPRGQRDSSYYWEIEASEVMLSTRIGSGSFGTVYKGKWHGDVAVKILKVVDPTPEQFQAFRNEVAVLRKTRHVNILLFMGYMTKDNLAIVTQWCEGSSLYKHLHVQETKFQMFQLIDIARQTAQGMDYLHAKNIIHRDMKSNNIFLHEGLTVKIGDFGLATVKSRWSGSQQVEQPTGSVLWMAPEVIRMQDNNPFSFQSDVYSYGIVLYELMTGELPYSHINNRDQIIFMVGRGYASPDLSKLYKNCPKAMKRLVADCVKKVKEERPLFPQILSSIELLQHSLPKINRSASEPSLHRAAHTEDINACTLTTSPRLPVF

Question: COc1cc2nccc(Oc3ccc(NC(=O)C4(C(=O)Nc5ccc(F)cc5)CC4)cc3)c2cc1OC [cabozantinib] was tested. Which IC50 ([1]; 4-4 cell, read-out: cell panel IC50, J82) did it give?
Answer: 22.9 µM

Question: What about the IC50 ([1]; 4-4 cell, read-out: cell panel IC50, PA-1) of the same compound?
Answer: 17.8 µM

Question: What about the IC50 ([1]; 4-4 cell, read-out: cell panel IC50, SJCRH30) of the same compound?
Answer: 15.2 µM

Question: And the IC50 ([1]; 4-4 cell, read-out: cell panel IC50, SR)?
Answer: 24.5 µM

Question: And the IC50 ([1]; 769-P, read-out: cell panel IC50, 769-P)?
Answer: 30 µM

Question: What about the IC50 ([1]; 786-0, read-out: cell panel IC50, 786-0) of the same compound?
Answer: 28.7 µM

Question: And the IC50 ([1]; A 172, read-out: cell panel IC50, A-172)?
Answer: 14.6 µM

Question: And the IC50 ([1]; A204, read-out: cell panel IC50, A-204)?
Answer: 0.082 µM

Question: And the IC50 ([1]; A498, read-out: cell panel IC50, A-498)?
Answer: 24.1 µM

Question: What about the IC50 ([1]; A549, read-out: cell panel IC50, A-549) of the same compound?
Answer: 18.5 µM

Question: And the IC50 ([1]; A-375, read-out: cell panel IC50, A375)?
Answer: > 31.6 µM

Question: What about the IC50 ([1]; A-427, read-out: cell panel IC50, A-427) of the same compound?
Answer: 14.3 µM

Question: And the IC50 ([1]; ACHN, read-out: cell panel IC50, ACHN)?
Answer: 20.9 µM

Question: And the IC50 ([1]; AN3-CA, read-out: cell panel IC50, AN3 CA)?
Answer: 6.03 µM

Question: And the IC50 ([1]; AU565, read-out: cell panel IC50, AU-565)?
Answer: 20.1 µM

Question: And the IC50 ([1]; BT-20, read-out: cell panel IC50, BT-20)?
Answer: > 31.6 µM

Question: And the IC50 ([1]; BT-549, read-out: cell panel IC50, BT-549)?
Answer: 30.3 µM

Question: And the IC50 ([1]; BXPC-3, read-out: cell panel IC50, BxPC-3)?
Answer: 24.1 µM

Question: What about the IC50 ([1]; C-33-A, read-out: cell panel IC50, C-33 A) of the same compound?
Answer: 19.7 µM

Question: What about the IC50 ([1]; CAL-27, read-out: cell panel IC50, CAL 27) of the same compound?
Answer: 23.4 µM

Question: What about the IC50 ([1]; CCRF-CEM, read-out: cell panel IC50, CCRF-CEM) of the same compound?
Answer: 19.5 µM

Question: What about the IC50 ([1]; DLD-1, read-out: cell panel IC50, DLD-1) of the same compound?
Answer: 22.7 µM

Question: And the IC50 ([1]; FaDu, read-out: cell panel IC50, FaDu)?
Answer: > 31.6 µM

Question: And the IC50 ([1]; HCT-15, read-out: cell panel IC50, HCT-15)?
Answer: 21.9 µM

Question: And the IC50 ([1]; HCT-116, read-out: cell panel IC50, HCT-116)?
Answer: 20.9 µM

Question: And the IC50 ([1]; Hs-578T, read-out: cell panel IC50, Hs 578T)?
Answer: 24.2 µM

Question: And the IC50 ([1]; Jurkat E6.1, read-out: cell panel IC50, Jurkat E6.1)?
Answer: 11.5 µM

Question: And the IC50 ([1]; K562, read-out: cell panel IC50, K-562)?
Answer: 3.94 µM

Question: What about the IC50 ([1]; LS174T, read-out: cell panel IC50, LS 174T) of the same compound?
Answer: > 31.6 µM

Question: What about the IC50 ([1]; LoVo, read-out: cell panel IC50, LoVo) of the same compound?
Answer: 7.63 µM

Question: What about the IC50 ([1]; MG-63, read-out: cell panel IC50, MG-63) of the same compound?
Answer: 15.6 µM

Question: What about the IC50 ([1]; MOLT-4, read-out: cell panel IC50, MOLT-4) of the same compound?
Answer: 12.1 µM

Question: What about the IC50 ([1]; MeWo, read-out: cell panel IC50, MeWo) of the same compound?
Answer: 29.8 µM

Question: What about the IC50 ([1]; NCI-H82, read-out: cell panel IC50, NCI-H82) of the same compound?
Answer: 16.8 µM

Question: And the IC50 ([1]; NCI-H460, read-out: cell panel IC50, NCI-H460)?
Answer: 28.1 µM

Question: What about the IC50 ([1]; OVCAR-3, read-out: cell panel IC50, OVCAR-3) of the same compound?
Answer: > 31.6 µM

Question: What about the IC50 ([1]; RPMI-7951, read-out: cell panel IC50, RPMI-7951) of the same compound?
Answer: 14.9 µM

Question: What about the IC50 ([1]; SHP77, read-out: cell panel IC50, SHP-77) of the same compound?
Answer: > 31.6 µM

Question: What about the IC50 ([1]; SK-N-AS, read-out: cell panel IC50, SK-N-AS) of the same compound?
Answer: 31 µM

Question: And the IC50 ([1]; SW48, read-out: cell panel IC50, SW48)?
Answer: 12.5 µM

Question: And the IC50 ([1]; SW480, read-out: cell panel IC50, SW480)?
Answer: 16.2 µM

Question: What about the IC50 ([1]; SW-620, read-out: cell panel IC50, SW620) of the same compound?
Answer: 6.24 µM

Question: And the IC50 ([1]; U2OS, read-out: cell panel IC50, U-2 OS)?
Answer: 19.3 µM

Question: What about the IC50 ([1]; U-87 MG, 72 h, read-out: IC50 in cell proliferation assay (table S5 cellpanel data)) of the same compound?
Answer: 22.3 µM

Question: What about the “%-inhibition, ABL(E255K)” value [2] of the same compound?
Answer: 25%

Question: And the “%-inhibition of RAF1” value [3]?
Answer: 48%

Question: What about the “%-inhibition of KIT(T670I)” value [4] of the same compound?
Answer: 100%

Question: And the “%-inhibition of PKACγ” value [5]?
Answer: -2.59%

Question: And the “%-inhibition of RON” value [6]?
Answer: 99%

Question: And the “%-inhibition of MINK” value [7]?
Answer: -2%

Question: And the “%-inhibition of NEK6” value [8]?
Answer: -3.21%

Question: What about the “%-inhibition of TAOK2” value [9] of the same compound?
Answer: 6%
